Data on 2 compounds can be found in ChEMBL document CHEMBL3351663, “Discovery of acylurea isosteres of 2-acylaminothiadiazole in the azaxanthene series of glucocorticoid receptor agonists” (Bioorg Med Chem Lett, 2014).

In one series the target is T1, Progesterone receptor (Homo sapiens, UniProt P06401).
T1 sequence (P06401 whole entry): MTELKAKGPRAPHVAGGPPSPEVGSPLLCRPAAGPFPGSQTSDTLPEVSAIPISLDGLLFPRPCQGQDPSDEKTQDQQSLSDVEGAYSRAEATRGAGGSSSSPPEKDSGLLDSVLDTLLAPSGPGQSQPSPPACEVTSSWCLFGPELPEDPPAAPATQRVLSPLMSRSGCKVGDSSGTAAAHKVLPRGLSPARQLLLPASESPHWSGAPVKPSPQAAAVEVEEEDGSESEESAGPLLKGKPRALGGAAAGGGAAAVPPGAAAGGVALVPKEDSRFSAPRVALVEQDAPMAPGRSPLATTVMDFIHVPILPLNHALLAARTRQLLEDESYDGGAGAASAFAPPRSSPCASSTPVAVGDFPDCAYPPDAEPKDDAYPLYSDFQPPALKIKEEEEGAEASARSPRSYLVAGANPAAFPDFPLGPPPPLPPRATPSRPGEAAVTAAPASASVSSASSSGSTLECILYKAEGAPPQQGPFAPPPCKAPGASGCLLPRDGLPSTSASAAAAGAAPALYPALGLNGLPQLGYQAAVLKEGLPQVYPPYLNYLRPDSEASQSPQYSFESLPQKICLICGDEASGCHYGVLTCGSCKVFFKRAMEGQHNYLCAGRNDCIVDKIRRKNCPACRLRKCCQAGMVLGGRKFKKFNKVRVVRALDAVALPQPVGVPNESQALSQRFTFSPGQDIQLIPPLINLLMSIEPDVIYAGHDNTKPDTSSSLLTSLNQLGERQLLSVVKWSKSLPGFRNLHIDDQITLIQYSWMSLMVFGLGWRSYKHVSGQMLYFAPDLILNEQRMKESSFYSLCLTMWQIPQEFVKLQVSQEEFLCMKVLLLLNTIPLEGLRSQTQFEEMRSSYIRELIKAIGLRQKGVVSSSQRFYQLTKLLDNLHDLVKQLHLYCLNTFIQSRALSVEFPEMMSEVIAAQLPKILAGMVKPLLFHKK
The experiment in a line: Binding affinity to progesterone receptor (unknown origin) by fluorescence polarization assay. (In general: In fluorescence polarisation assays a small probe gives low polarisation when free and higher when bound to something large.)

A short description of series [1]: Oral bioavailability in rat at 10 mg/kg. Conditions: in vivo. The series is classed as ADME, organism-based.
Series [2] addresses T2, Glucocorticoid receptor (Homo sapiens, UniProt P04150).
T2 sequence (P04150 whole entry): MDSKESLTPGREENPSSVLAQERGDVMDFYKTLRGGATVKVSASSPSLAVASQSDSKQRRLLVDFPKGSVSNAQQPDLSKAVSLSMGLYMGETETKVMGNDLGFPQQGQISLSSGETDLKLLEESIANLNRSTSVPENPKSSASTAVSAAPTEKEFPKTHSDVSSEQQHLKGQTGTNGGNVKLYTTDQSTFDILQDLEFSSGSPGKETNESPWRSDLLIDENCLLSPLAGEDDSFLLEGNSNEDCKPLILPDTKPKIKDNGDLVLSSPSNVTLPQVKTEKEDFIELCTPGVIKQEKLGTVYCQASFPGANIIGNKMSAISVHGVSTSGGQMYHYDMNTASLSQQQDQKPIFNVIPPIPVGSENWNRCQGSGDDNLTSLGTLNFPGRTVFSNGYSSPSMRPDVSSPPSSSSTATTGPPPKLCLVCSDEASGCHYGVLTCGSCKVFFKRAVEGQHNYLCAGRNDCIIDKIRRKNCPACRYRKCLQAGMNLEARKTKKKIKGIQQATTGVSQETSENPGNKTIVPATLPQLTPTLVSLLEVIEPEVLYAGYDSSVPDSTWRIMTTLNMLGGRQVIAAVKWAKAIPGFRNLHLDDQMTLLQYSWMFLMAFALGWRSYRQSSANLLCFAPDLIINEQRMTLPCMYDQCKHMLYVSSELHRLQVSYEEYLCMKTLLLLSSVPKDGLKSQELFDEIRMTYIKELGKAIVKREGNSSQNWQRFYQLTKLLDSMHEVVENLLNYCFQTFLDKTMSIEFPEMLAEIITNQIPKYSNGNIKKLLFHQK
As to the kind of experiment: Agonist activity at glucocorticoid receptor in human HeLa cells assessed as NP-1 transactivation by luciferase reporter gene assay. Format: cell-based. For orientation: A reporter such as luciferase makes a cellular process visible.

Series [3] deals with Liver microsome. As to the kind of experiment: Metabolic stability in rat liver microsomes assessed as compound remaining.
Series [4] in a line: Half life in rat liver microsomes. Format: ADME.
Series [5] addresses T2, Glucocorticoid receptor. The experiment in a line: Binding affinity to glucocorticoid receptor (unknown origin) by fluorescence polarization assay.
The species named for series [6] is Rattus norvegicus. The experiment in a line: animal or person. The series is classed as functional. Conditions: Lewis, route oral.
Series [7] concerns Liver microsome. As to the kind of experiment: Metabolic stability in human liver microsomes assessed as compound remaining.
Series [8] concerns the target T2, Glucocorticoid receptor. Also noted: species or system Blood.
Series [9] can be described thus: Half life in human liver microsomes. Conditions: liver microsomes.
The target of series [10] is T2, Glucocorticoid receptor. The experiment in a line: Agonist activity at glucocorticoid receptor in human A549 cells assessed as E-selectin transrepression by luciferase reporter gene assay. The series is classed as cell-based.
The nature of series [11]: Half life in dog liver microsomes. The series is classed as ADME, Canis lupus familiaris. (In general: Liver microsomes are vesicles of endoplasmic reticulum, rich in cytochrome P450 enzymes.)
Series [12] deals with T2, Glucocorticoid receptor. The experiment in a line: Agonist activity at glucocorticoid receptor in human A549 cells assessed as AP-1 transrepression by luciferase reporter gene assay. Format: cell-based.
Series [13] in a line: Clearance in rat at 1 mg/kg, iv. Details: dose 1 mg/kg, route intravenous. The series is classed as ADME, organism-based. Conditions: in vivo.
Series [14] is described as follows: Oral bioavailability in dog at 5 mg/kg. The series is classed as ADME, organism-based, Canis lupus familiaris. Conditions: in vivo.
For another series, the system named is Liver. The experiment in a line: Metabolic stability in mouse liver microsomes assessed as compound remaining.
A short description of series [15]: Clearance in iv dosed dog. Conditions: in vivo. Format: ADME, organism-based, Canis lupus familiaris.
A short description of series [16]: Drug uptake in Lewis rat serum at 10 mg/kg, po after 3 hrs. The series is classed as ADME, organism-based. Details: dose 10 mg/kg, route oral. Conditions: read-out: Drug uptake.
Series [17] has as its system Rattus norvegicus. As to the kind of experiment: Antiinflammatory activity in Lewis rat assessed as inhibition of LPS-induced TNF-alpha production at 30 mg/kg, po administered 90 mins prior to LPS challenge measured after 90 mins relative to vehicle-treated control. The series is classed as functional.

On to `CC(C)Oc1ccc(-c2ccc3c(n2)Oc2c(F)cccc2[C@@H]3C(C)(C)C(=O)NC(N)=O)cn1`, for which the Ki was 313 nM at Progesterone receptor and 0.7 nM on Glucocorticoid receptor [5]. Besides, the bioavailability in series [1] is 25.7%; in series [14], 82%. Besides, the EC50 is 59.2 nM at Glucocorticoid receptor [2], 355 nM on Glucocorticoid receptor [8], 3.8 nM at Glucocorticoid receptor [10] and 6.7 nM at Glucocorticoid receptor [12]. Further, the Stability with Liver microsome [3] is listed as 58%; with Liver microsome [7], 97%; in the series with Liver, 86%. The figures for the half-life in series [4], in [9] and in series [11] were 0.233 h, 3.18 h and 1.63 h, respectively. In the series filed under Rattus norvegicus [6], the inhibition in vivo at 10 mg/kg came out at 69%. Besides, the figures for the clearance in [13] and in [15] were 20.8 mL/min/kg and 9 mL/min/kg, respectively. Besides, in series [16], the concentration at 3 h is 500 nM.

Regarding `C[C@]12C=CC(=O)C=C1CC[C@@H]1[C@@H]2[C@@H](O)C[C@@]2(C)[C@H]1CC[C@]2(O)C(=O)CO` [PREDNISOLONE], in the series with Rattus norvegicus [17], the inhibition in vivo at 30 mg/kg worked out at 75%.

The Ki is a measure of affinity in units of concentration, obtained from inhibition or displacement. The term bioavailability denotes dose-corrected exposure relative to a reference, in per cent. One may read the EC50 as the concentration at which the effect is half-maximal. The term half-life denotes the time in which the quantity being followed falls by half. Low readings indicate rapid decline, high ones slow decline. In general, inhibition in vivo refers to the relative decrease from the control value, in per cent. By clearance is commonly meant the volume of plasma or blood freed of the substance per unit of time. Read a high clearance as a high capacity for elimination.
